Consider six compounds from PMC12650660, “Novel Synthetic Strategies Towards Analogues of Cadaside and Malacidin Antibiotic Peptides” (Biomolecules, 2025).

In brackets after ≈: the same amount, converted by molar mass. Numbered stars: 1 amine (or outer) side, 2 acyl side, 3 side chain; on linkers, the order of the positions; unused ones are H or OH. Bridge positions count the residues as written; N and C are the ends. Square brackets hold non-standard residues; d marks the D form. Peptide text beside a SMILES is read from it. * marks the point of attachment. β2hAla(R) = C[C@H](CN[*:1])C(=O)[*:2]; Decanoyl = CCCCCCCCCC(=O)*; Dap = NC[C@H](N)C(=O)O; Sar = CNCC(=O)O

One experiment deals with B. subtilis 168. The class given is cell-based. The note with it: 168, 24 h. The procedure: MICs were measured in triplicate by microbroth dilution. An overnight culture of B. subtilis 168 (DSMZ German Collection of Microorganisms and Cell Cultures GmbH) was inoculated at 5 × 10^5 CFU/mL in cation-adjusted Mueller–Hinton broth (MHB II) with or without 15 mM or 100 mM CaCl2. Serial two-fold peptide dilutions (128 - 1 µg/mL for analogues and 16 - 0.25 µg/mL for daptomycin) were incubated in polypropylene U-bottom 96-well plates (200 µL final volume) at 37 °C for 24 h. MIC was the lowest concentration at which no growth was observed. Optical density measurements at 620 nm were performed using a Thermo Scientific Multiskan FC (Thermo Fisher Scientific Inc., Paisley, UK). MIC was determined from the lowest concentration at which no tubidity was observed, using an untreated positive growth control, and a broth-only sterility control as references.

Experiment [1] is described as follows: TLC precursor-binding assay with C55-P. On the set-up: key to C55-P (TLC binding): “+” indicates binding confirmed; “-” indicates no binding; “~” indicates potential binding with absence of precursor band. The note with it: for C55-P (TLC binding): peptide 0.5, 1, 2 equiv. with C55-P in Tris·HCl pH 7.5, 50 mM CaCl2, 1 h, silica TLC. The procedure:
(§1) Lipid II and undecaprenyl phosphate (C55-P) (1 equiv., 30 µL) in Tris•HCl buffer (0.2% Triton X-100, 26 mM MgCl2, and 50 mM CaCl2 at pH 7.5) were incubated with the peptides (0.5, 1, 2 equiv.) or nisin (0.1, 0.5, 1 equiv.) in 30 µL water for 1 h. The reaction was then extracted with ^tBuOH/6 M PyOAc (2/1 v/v, 100 µL) and the organic phase was dried using an Eppendorf vacuum centrifuge 5301 (Fisher Scientific, Loughborough, UK) under reduced pressure. The solid was redissolved in CHCl3/MeOH (1/1 v/v, 30–60 µL) for spotting onto the TLC plates. In addition to the peptide–lipid mixtures, a control of each peptide/nisin with 30 µL buffer, and a control of each lipid with 30 µL HPLC-grade water were also incubated and subjected to the same workup. Silica TLC plates were run in a CHCl3/MeOH/H2O/NH3 (88/48/10/1 v/v) solvent system and stained using iodine vapour, phosphomolybdic acid (PMA), or KMnO4 stain, as well as visualisation at 254 nm and 365 nm.

The nature of experiment [2]: TLC precursor-binding assay with lipid II. On the set-up: key to Lipid II (TLC binding): “+” indicates binding confirmed; “-” indicates no binding; “~” indicates potential binding with absence of precursor band. The note with it: for binding to lipid II in TLC assay (in words): lipid II spot on TLC after incubation, PMA staining in Figure S6; for Lipid II (TLC binding): peptide 0.5, 1, 2 equiv. (nisin 0.1, 0.5, 1 equiv.) with lipid II in Tris·HCl pH 7.5, 50 mM CaCl2, 1 h, silica TLC. The procedure: as §1

`CCCCCCCCCC(=O)NC[C@@H](C)C(=O)NCC(=O)N[C@H](CCC(=O)O)C(=O)N[C@@H](Cc1ccc(O)cc1)C(=O)N[C@@H]1C(=O)N[C@H]([C@H](C)CC)C(=O)N[C@@H](CC(=O)O)C(=O)N[C@@H](CC(=O)O)C(=O)N2CCC[C@H]2C(=O)NCC(=O)N[C@H](CCC(=O)O)C(=O)N[C@@H](CC(=O)O)C(=O)N(C)CC(=O)O[C@@H]1C` [Peptide C7a] (Decanoyl-[β2hAla(R)]G[dE]YT[dI]DDPG[dE]D[Sar]; ester 5-C): in the experiment on B. subtilis 168, the “MIC + Ca^2+” value was 128 µg/mL and the “MIC − Ca^2+” value is 128 µg/mL (≈ 85.2 µM). In addition, in experiment [1], the “C55-P (TLC binding)” value is listed as “-”. Besides, in experiment [2], the “binding to lipid II in TLC assay (in words)” value is recorded as “lack of binding” and the “Lipid II (TLC binding)” value is listed as “-”.

Consider `CCCCCCCCCC(=O)NC[C@@H](C)C(=O)NCC(=O)N[C@H](CCC(=O)O)C(=O)N[C@@H](Cc1ccc(O)cc1)C(=O)N[C@@H]1C(=O)N[C@H]([C@H](C)CC)C(=O)N[C@@H](CC(=O)O)C(=O)N[C@@H](CC(=O)O)C(=O)N2CCC[C@H]2C(=O)NCC(=O)N[C@@H](CCC(=O)O)C(=O)N[C@@H](CC(=O)O)C(=O)N(C)CC(=O)O[C@@H]1C` [Peptide C8] (Decanoyl-[β2hAla(R)]G[dE]YT[dI]DDPGED[Sar]; ester 5-C), for which, in the experiment on B. subtilis 168, the “MIC + Ca^2+” value came out at 128 µg/mL and the “MIC − Ca^2+” value is 128 µg/mL (≈ 85.2 µM). In addition, the “C55-P (TLC binding)” value in experiment [1] is listed as “-”. Moreover, in experiment [2], the “Lipid II (TLC binding)” value is reported as “-”.

Regarding `CCCCCCCCCC(=O)NC[C@@H](C)C(=O)NCC(=O)N[C@H](CCC(=O)O)C(=O)N[C@@H](Cc1ccc(O)cc1)C(=O)N[C@@H]1C(=O)N[C@H]([C@H](C)CC)C(=O)N[C@@H](CC(=O)O)C(=O)N[C@@H](CC(=O)O)C(=O)N2CCC[C@H]2C(=O)NCC(=O)N[C@H](CCC(=O)O)C(=O)NCC(=O)N[C@@H](CCC(=O)O)C(=O)N(C)CC(=O)O[C@@H]1C` [Peptide C9] (Decanoyl-[β2hAla(R)]G[dE]YT[dI]DDPG[dE]GE[Sar]; ester 5-C), in the experiment on B. subtilis 168, the “MIC + Ca^2+” value is 128 µg/mL and the “MIC − Ca^2+” value is reported as 128 µg/mL (≈ 81.3 µM). In experiment [1] (absence of C55-P spot = potential indicator of binding, KMnO4 staining in Figure S5), the “C55-P spot on TLC after incubation with peptide (in words)” value was “a lack of binding”. For the same compound, the “C55-P (TLC binding)” value in experiment [1] was “-”. The “Lipid II (TLC binding)” value in experiment [2] is given as “-”.

With `CCCCCCCCCC(=O)N[C@@H](CC(=O)O)C(=O)N[C@H]1CNC(=O)[C@@H]2CCCN2C(=O)[C@H](C(C)C)NC(=O)[C@@H](CC(=O)O)NC(=O)CNC(=O)[C@H](CC(=O)O)NC(=O)[C@H](CC(=O)O)NC(=O)[C@H](CCCCN)NC(=O)[C@@H](C(C)C)NC1=O` [Peptide M1] (Decanoyl-D[Dap][dV]KDDG[dD]VP; lactam 2-C), in the experiment on B. subtilis 168, the “MIC + Ca^2+” value worked out at 128 µg/mL and the “MIC − Ca^2+” value is 128 µg/mL (≈ 108 µM). Further, the “C55-P (TLC binding)” value in experiment [1] is listed as “-”. The “Lipid II (TLC binding)” value in experiment [2] is reported as “-”.

For the compound `CCCCCCCCCC(=O)N[C@@H](CC(=O)O)C(=O)N[C@H]1CNC(=O)[C@@H]2CCCN2C(=O)[C@H](C(C)C)NC(=O)[C@@H](CC(=O)O)NC(=O)CNC(=O)[C@H](CC(=O)O)NC(=O)CNC(=O)[C@H](CC(=O)O)NC(=O)[C@H](CCCCN)NC(=O)[C@@H](C(C)C)NC1=O` [Peptide M2] (Decanoyl-D[Dap][dV]KDGDG[dD]VP; lactam 2-C), in the experiment on B. subtilis 168, the “MIC + Ca^2+” value is recorded as 128 µg/mL and the “MIC − Ca^2+” value came to 128 µg/mL (≈ 103 µM). The “C55-P (TLC binding)” value in experiment [1] is reported as “-”. The “Lipid II (TLC binding)” value in experiment [2] is “-”.

Regarding `CCCCCCCCCC(=O)N[C@@H](CC(=O)O)C(=O)N[C@H]1CNC(=O)[C@@H]2CCCN2C(=O)[C@H](C(C)C)NC(=O)[C@H](CC(=O)O)NC(=O)CNC(=O)[C@H](CC(=O)O)NC(=O)CNC(=O)[C@H](CC(=O)O)NC(=O)[C@H](CCCCN)NC(=O)[C@@H](C(C)C)NC1=O` [Peptide M3] (Decanoyl-D[Dap][dV]KDGDGDVP; lactam 2-C), in the experiment with B. subtilis 168, the “MIC + Ca^2+” value was determined as 128 µg/mL and the “MIC − Ca^2+” value turned out to be 128 µg/mL (≈ 103 µM). For the same compound, the “C55-P (TLC binding)” value in experiment [1] is given as “-”. Besides, in experiment [2], the “binding to lipid II in TLC assay (in words)” value was “lack of binding” and the “Lipid II (TLC binding)” value is “-”.
